Consider ten compounds from ChEMBL document CHEMBL1151556, “Design and synthesis of new hypocholesterolemic organosilanes with antioxidant properties” (Bioorg Med Chem Lett, 1996).

In one test the test system is HepG2. Kind of test: In vitro inhibition of cholesterol synthesis in HepG2 cells. The class given is functional, cell-based. The following applies: Homo sapiens.
The test system of the next test is HUVEC. Description: (§1) Compound was evaluated for the inhibition of HUVEC-induced LDL oxidation. Particulars: Homo sapiens. It is filed as functional, cell-based.
The species entered for test [1] is Homo sapiens. Description: Compound was evaluated for the inhibition of human LDL oxidation mediated by copper(II). The class given is functional.
Test [2] has as its target Squalene monooxygenase (Sus scrofa). Description: Compound was evaluated for the inhibition of pig liver microsomal squalene epoxidase. A general note: Microsomes from liver hold many membrane-bound enzymes, among them those of drug oxidation.
Another test has as its system Rattus norvegicus. Kind of test: Compound was evaluated in vivo for inhibition of cholesterol synthesis in rats upon oral administration. It is filed as functional.
The species named for test [3] is Homo sapiens. The test is described as §1. The class given is functional, organism-based.

The IC50 is the midpoint of a concentration-inhibition curve. A lower IC50 goes with inhibition by little substance. As a reminder, the ED50 is the dose at which the effect has come halfway, by size or by number of responders. Take `CCN(C/C=C/C#CC(C)(C)C)Cc1cccc(OC[Si](C)(C)c2ccccc2C)c1`: the IC50 with HepG2 was 0.12 µM; with HUVEC, 50 µM; in the test filed under Homo sapiens [1], > 50 µM; in test [2] it was 0.03 µM. The compound also returned an ED50 with Rattus norvegicus of 3.2 mg/kg.

In the test filed under Homo sapiens [1] (Homo sapiens), `CC(C)(CNc1ccccc1)c1ccccc1` registered a half-maximal inhibitory concentration (IC50) of 100 µM.

`CCN(C[Si](C)(C)c1ccccc1)c1ccccc1` showed an IC50 in the test filed under Homo sapiens [1] (Homo sapiens) of 15 µM. This IC50 is about 6.7-fold lower than that of the compound before.

Consider `COc1ccc(NC[Si](C)(C)c2ccccc2)cc1`, for which the IC50 in the test filed under Homo sapiens [1] (Homo sapiens) turned out to be 3 µM.

In the test filed under Homo sapiens [1] (Homo sapiens), `CCN(C[Si](C)(C)c1ccccc1)c1ccc(C(F)(F)F)cc1` registered an IC50 of 100 µM.

For `CCN(C[Si](C)(C)c1ccc(C(F)(F)F)cc1)c1ccccc1`, half-maximal inhibition in the test listed under Homo sapiens [1] (Homo sapiens) (IC50) was put at 20 µM.

As to `C[Si](C)(CNc1ccccc1)c1ccccc1`, in the test filed under Homo sapiens [1] (Homo sapiens), the half-inhibitory concentration (IC50) was 7.8 µM.

`CCN(C/C=C/C#CC(C)(C)C)Cc1cccc(NC[Si](C)(C)c2ccccc2C)c1`: the IC50 amounted to 0.2 µM with HepG2, 7 µM in the test on HUVEC and 20 µM in the test listed under Homo sapiens [1]. The ED50 in the test on Rattus norvegicus is 10 mg/kg.

Compound `CC(C)(Sc1cc(C(C)(C)C)c(O)c(C(C)(C)C)c1)Sc1cc(C(C)(C)C)c(O)c(C(C)(C)C)c1` [PROBUCOL] displayed a half-maximal inhibitory concentration (IC50) in the test filed under Homo sapiens [1] (Homo sapiens) of 5.3 µM.

With VITAMIN E, the results for the IC50 in the test filed under Homo sapiens [3] and in the test filed under Homo sapiens [1] were 13.6 µM and 10 µM, respectively.
